{"source": "patent US4229528A", "about": "“Fluorescence method for enzyme analysis which couples aromatic amines with aromatic aldehydes” (priority 1978, dated 1980)", "test_system": "arylamidase activity", "experiment": "Inhibitory effect of 5NSA on arylamidase activity (initial hydrolytic rates with and without added 5NSA)", "type": "biochemical", "excerpt": "At 10 mmol/liter, 50% inhibition of all enzyme activities occurs. Interfering side reactions with 5NSA may occur. The compound reacts with both aliphatic and aromatic amine groups to form Schiff-Base complexes. Particularly susceptible are proteins containing lysine and glutamine. […] Cell proteins react at higher concentrations, i.e., above 1 mmol/liter of 5NSA, to form a blue-green fluorescence, which may account for as much as 15% of the cellular fluorescence at 530 nm. Use of appropriate filters to block out green fluorescence will block out the nonspecific cell protein reaction with 5NSA.", "key": {"[1]": {"details": "1 mmol/liter 5NSA, initial hydrolytic rate with vs without 5NSA"}}}
{"smiles": "O=Cc1cc([N+](=O)[O-])ccc1O", "note": "[5NSA, 5-nitrosalicylaldehyde]", "values": [{"measurement": "Effect on Carbobenzoxy-arg-arg-4M2NA hydrolysis", "setting": "[1]", "result": "not affected significantly"}, {"measurement": "Effect on Lys-Ala-4M2NA activity", "setting": "[1]", "result": "not affected significantly"}, {"measurement": "inhibition of all enzyme activities", "setting": "10 mmol/liter 5NSA", "result": 50, "unit": "%"}]}
